Laboratory results: ChEMBL document CHEMBL1150318, “Discovery of a novel, orally active himbacine-based thrombin receptor antagonist (SCH 530348) with potent antiplatelet activity” (J Med Chem, 2008)
Calls of active or inactive are those of the source. No cut-off for these calls is given here.

Tests used:
[1] = test system: Platelet; experiment: Ex vivo inhibition of haTRAP-induced platelet aggregation in cynomolgus monkey at 0.5 mg/kg, po by impedance aggregometry; assay type: functional, organism-based; set-up: dose 0.5 mg/kg; settings: Macaca fascicularis
[2] = molecular target: T1, Proteinase-activated receptor 1 (Homo sapiens, UniProt P25116); experiment: Displacement of [3H]haTRAP from PAR1 in human platelets
T1 sequence (P25116 whole entry): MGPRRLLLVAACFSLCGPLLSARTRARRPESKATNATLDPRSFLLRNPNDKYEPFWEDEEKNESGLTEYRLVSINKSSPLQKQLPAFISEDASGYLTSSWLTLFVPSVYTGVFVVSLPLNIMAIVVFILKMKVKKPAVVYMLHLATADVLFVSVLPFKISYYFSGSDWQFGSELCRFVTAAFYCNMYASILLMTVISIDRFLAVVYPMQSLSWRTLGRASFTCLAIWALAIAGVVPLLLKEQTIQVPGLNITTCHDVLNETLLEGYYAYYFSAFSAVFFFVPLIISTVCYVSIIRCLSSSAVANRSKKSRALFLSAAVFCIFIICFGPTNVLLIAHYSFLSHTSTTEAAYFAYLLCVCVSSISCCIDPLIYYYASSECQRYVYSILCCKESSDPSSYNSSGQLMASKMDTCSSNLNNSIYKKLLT

[3] = Cmax in cynomolgus monkey at 1 mg/kg, po after 24 hrs; assay type: ADME, organism-based, Macaca fascicularis; set-up: dose 1 mg/kg, route oral; settings: in vivo
[4] = AUC (0 to 24 hrs) in cynomolgus monkey at 1 mg/kg, po after 24 hrs; assay type: ADME, organism-based, Macaca fascicularis; set-up: time < 24 hr, dose 1 mg/kg, route oral; settings: plasma
[5] = test system: Platelet; experiment: Ex vivo inhibition of haTRAP-induced platelet aggregation in cynomolgus monkey at 1 mg/kg, po after 24 hrs by impedance aggregometry; assay type: functional; settings: Macaca fascicularis
[6] = Cmax in cynomolgus monkey at 0.1 mg/kg, po after 24 hrs; assay type: ADME, organism-based, Macaca fascicularis; set-up: dose 0.1 mg/kg, route oral; settings: in vivo
[7] = test system: Platelet; experiment: Ex vivo inhibition of haTRAP-induced platelet aggregation in cynomolgus monkey at 0.1 mg/kg, po after 24 hrs by impedance aggregometry; assay type: functional; settings: Macaca fascicularis
[8] = AUC (0 to 24 hrs) in cynomolgus monkey at 0.1 mg/kg, po after 24 hrs; assay type: ADME, organism-based, Macaca fascicularis; set-up: time < 24 hr, dose 0.1 mg/kg, route oral; settings: plasma
[9] = test system: Platelet; experiment: Ex vivo inhibition of haTRAP-induced platelet aggregation in cynomolgus monkey at 1 mg/kg, po after 6 hrs by impedance aggregometry; assay type: functional; settings: Macaca fascicularis

Structure (SMILES) | Ki [2] [nM] | other results
C[C@H]1OC(=O)[C@@H]2C[C@@H]3C[C@H](NC(=O)OC(C)(C)C)CC[C@H]3[C@H](/C=C/c3ccc(-c4cccc(C#N)c4)cn3)[C@H]12 | 44 | 
CCOC(=O)N[C@@H]1CC[C@@H]2[C@@H](C1)C[C@H]1C(=O)O[C@H](C)[C@H]1[C@H]2/C=C/c1ccc(-c2cccc(C)c2F)cn1 | 11 | Cmax [3]: 20 nM; AUC(0-t) at 24 h [4]: 0.13 µM·h; inhibition in vivo at 1 mg/kg [5]: 100%
CCOC(=O)N[C@@H]1CC[C@@H]2[C@@H](C1)C[C@H]1C(=O)O[C@H](C)[C@H]1[C@H]2/C=C/c1ccc(-c2ccccc2F)cn1 | 11 | Cmax [6]: 24 nM; inhibition in vivo at 0.1 mg/kg [7]: 80%; AUC(0-t) at 24 h [8]: 0.2 µM·h
CCCN(C(=O)OCC)[C@@H]1CC[C@@H]2[C@@H](C1)C[C@H]1C(=O)O[C@H](C)[C@H]1[C@H]2/C=C/c1ccc(-c2cccc(F)c2)cn1 | 89 | 
CC(=O)N[C@@H]1CC[C@@H]2[C@@H](C1)C[C@H]1C(=O)O[C@H](C)[C@H]1[C@H]2/C=C/c1ccc(-c2cccc(F)c2)cn1 | 6.2 | 
C[C@H]1OC(=O)[C@@H]2C[C@@H]3C[C@H](NS(C)(=O)=O)CC[C@H]3[C@H](/C=C/c3ccc(-c4cccc(F)c4)cn3)[C@H]12 | 11 | inhibition in vivo at 1 mg/kg [9]: < 40%
CCC(=O)N[C@@H]1CC[C@@H]2[C@@H](C1)C[C@H]1C(=O)O[C@H](C)[C@H]1[C@H]2/C=C/c1ccc(-c2cccc(F)c2)cn1 | 6.4 | Cmax [3]: 750 nM; AUC(0-t) at 24 h [4]: 11.4 µM·h; inhibition in vivo at 1 mg/kg [5]: 100%
C[C@H]1OC(=O)[C@@H]2C[C@@H]3C[C@H](NS(C)(=O)=O)CC[C@H]3[C@H](/C=C/c3ccc(-c4cccc(C(F)(F)F)c4)cn3)[C@H]12 | 10 | 
C[C@H]1OC(=O)[C@@H]2C[C@@H]3C[C@H](N)CC[C@H]3[C@H](/C=C/c3ccc(-c4cccc(F)c4)cn3)[C@H]12 | 20 | inhibition in vivo at 1 mg/kg [9]: < 40%
CCOC(=O)N[C@@H]1CC[C@@H]2[C@@H](C1)C[C@H]1C(=O)O[C@H](C)[C@H]1[C@H]2/C=C/c1ccc(-c2cccc(C(N)=O)c2)cn1 | 367 | 
CC(=O)N[C@@H]1CC[C@@H]2[C@@H](C1)C[C@H]1C(=O)O[C@H](C)[C@H]1[C@H]2/C=C/c1ccc(-c2cccc(C(F)(F)F)c2)cn1 | 30 | 
CCOC(=O)N[C@@H]1CC[C@@H]2[C@@H](C1)C[C@H]1C(=O)O[C@H](C)[C@H]1[C@H]2/C=C/c1ccc(-c2cccc(Cl)c2)cn1 | 11 | 
CCCOC(=O)N[C@@H]1CC[C@@H]2[C@@H](C1)C[C@H]1C(=O)O[C@H](C)[C@H]1[C@H]2/C=C/c1ccc(-c2cccc(F)c2)cn1 | 17 | 
C[C@H]1OC(=O)[C@@H]2C[C@@H]3C[C@H](NC(=O)C4CC4)CC[C@H]3[C@H](/C=C/c3ccc(-c4cccc(F)c4)cn3)[C@H]12 | 6.5 | Cmax [3]: 390 nM; AUC(0-t) at 24 h [4]: 5.53 µM·h; inhibition in vivo at 1 mg/kg [5]: 100%

Continued by falling Ki [2], values first:

Ki [2] [nM] | Structure (SMILES) | other results
6.1 | COC(=O)N[C@@H]1CC[C@@H]2[C@@H](C1)C[C@H]1C(=O)O[C@H](C)[C@H]1[C@H]2/C=C/c1ccc(-c2cccc(F)c2)cn1 | 
5.9 | CCOC(=O)N[C@@H]1CC[C@@H]2[C@@H](C1)C[C@H]1C(=O)O[C@H](C)[C@H]1[C@H]2/C=C/c1ccc(-c2cc(F)cc(F)c2)cn1 | 
5.9 | CCOC(=O)N[C@@H]1CC[C@@H]2[C@@H](C1)C[C@H]1C(=O)O[C@H](C)[C@H]1[C@H]2/C=C/c1ccc(-c2cccc(OC)c2)cn1 | 
4.8 | CCNC(=O)N[C@@H]1CC[C@@H]2[C@@H](C1)C[C@H]1C(=O)O[C@H](C)[C@H]1[C@H]2/C=C/c1ccc(-c2cccc(F)c2)cn1 | 
4.4 | CNC(=O)N[C@@H]1CC[C@@H]2[C@@H](C1)C[C@H]1C(=O)O[C@H](C)[C@H]1[C@H]2/C=C/c1ccc(-c2cccc(F)c2)cn1 | Cmax [3]: 260 nM; AUC(0-t) at 24 h [4]: 2.63 µM·h; inhibition in vivo at 1 mg/kg [5]: 55%
4.1 | CCOC(=O)N(C)[C@@H]1CC[C@@H]2[C@@H](C1)C[C@H]1C(=O)O[C@H](C)[C@H]1[C@H]2/C=C/c1ccc(-c2cccc(F)c2)cn1 | Activity [1]: inactive
3.7 | CCOC(=O)N(C)[C@@H]1CC[C@@H]2[C@@H](C1)C[C@H]1C(=O)O[C@H](C)[C@H]1[C@H]2/C=C/c1ccc(-c2cccc(C(F)(F)F)c2)cn1 | 
1.8 | CCOC(=O)N[C@@H]1CC[C@@H]2[C@@H](C1)C[C@H]1C(=O)O[C@H](C)[C@H]1[C@H]2/C=C/c1ccc(-c2cccc(C#N)c2)cn1 | Cmax [6]: 200 nM; inhibition in vivo at 0.1 mg/kg [7]: 80%; AUC(0-t) at 24 h [8]: 2.08 µM·h
